# Results taken from US4450269A, “Mono-5-substituted-3-chloro-4H-1,2,6-thiadiazin-4-one antifungal agents” (FMC Corporation, priority 1980, dated 1984).
# Like-named read-outs stand apart in the source and are kept apart here.
# What was measured:
# Alternaria solani [1] = experiment: Spore germination test; type: cell-based; settings: AS, 48 hours
# Experimental: (§1) The test chemical was dissolved or suspended in acetone in an amount such that 0.8 ml of the resulting suspension or solution, mixed with 40 ml water agar produced a water agar solution containing 40, 10, 2.5 and 1 ppm of test chemical. The resulting agar solution, at 50° C., was then divided equally between two sterile petri dishes, each having four separated quadrants, and allowed to solidify. […] quadrants of each dish were flooded with 0.1 ml of a spore suspension in sterile water. Spores of two pathogens, Erysiphe polygoni and Uromyes phaseoli, from infected plant leaves, were brushed on the remaining two quadrants. The tests were then incubated 48 hours, at 24° C.
# (§2) Readings were then taken and the percentage of germinated spores calculated. From this percentage, a spore germination rating was assigned as follows: […]
# Botrytis cinerea = experiment: Spore germination test; type: cell-based; settings: BC, 48 hours
# Experimental: as §1, §2
# Erysiphe polygoni [2] = experiment: Spore germination test; type: cell-based; settings: EP, 48 hours
# Experimental: as §1, §2
# Uromyces phaseoli [3] = experiment: Spore germination test; type: cell-based; settings: UP, 48 hours
# Experimental: as §1, §2
# Pyricularia oryzae [4] = type: cell-based; settings: PO, 48 hours
# Cladosporium cucumerinum [5] = experiment: Spore germination test; type: cell-based; settings: CC, 48 hours
# Experimental: CC = Cladosporium cucumerinum
# as §1, §2
# Phytophthora infestans [6] = type: cell-based; settings: PI, 48 hours
# Alternaria solani [7] = experiment: Mycelial growth test; type: cell-based; settings: Alternaria solani, 72 h, AS, read-out: Percent Fungus Growth Inhibition
# Fusarium solani = experiment: Mycelial growth test; type: cell-based; settings: Fusarium solani, 72 h
# Sclerotinia fructicola = experiment: Mycelial growth test; type: cell-based; settings: Sclerotinia, 72 h, SF, read-out: Percent Fungus Growth Inhibition
# Excerpt: | SF = Sclerotinia fructicola
# Pyricularia oryzae [8] = experiment: microbe, parasite or virus in culture; type: cell-based; settings: Pyricularia oryzae, 72 h
# Pythium ultimum = experiment: Mycelial growth test; type: cell-based; settings: Globisporangium ultimum, 72 h, PU, read-out: Percent Fungus Growth Inhibition
# Rhizoctonia solani = experiment: Mycelial growth test; type: cell-based; settings: Rhizoctonia solani, 72 h, RS, read-out: Percent Fungus Growth Inhibition
# Excerpt: | RS = Rhizoctonia solani
# Cladosporium cucumerinum [9] = experiment: Mycelial growth test; type: cell-based; settings: Cladosporium cucumerinum, CC, read-out: Percent Fungus Growth Inhibition
# Excerpt: |CC = Cladosporium cucumerinum
# Phytophthora infestans [10] = experiment: whole plant or invertebrate; type: in vivo; settings: Phytophthora infestans, in Solanum lycopersicum, foliar, read-out: Percent Disease Control, foliar, tomato late blight, 150 ppm, protective
# Pyricularia oryzae [11] = experiment: whole plant or invertebrate; type: in vivo; settings: Pyricularia oryzae, foliar, 24 h, read-out: Percent Disease Control, curative, rice blast, 150 ppm, 24 hours after inoculation
# Helminthosporium oryzae = experiment: Mycelial growth test; settings: Bipolaris oryzae, 72 h
# Uromyces phaseoli [12] = experiment: whole plant or invertebrate; settings: foliar, read-out: Percent Disease Control, foliar, bean rust
# Uromyces phaseoli [13] = experiment: whole plant or invertebrate; settings: foliar, 24 h, read-out: Percent Disease Control, curative, bean rust
# Erysiphe polygoni [14] = experiment: whole plant or invertebrate; settings: foliar, 24 h, read-out: Percent Disease Control, curative, bean powdery mildew
smiles,measurement,setting,value
"CS(=O)(=O)c1ccc(Oc2nsnc(Cl)c2=O)cc1 [Compound 41, 3-chloro-5-[(4-methylsulfonyl)phenoxy]-4H--1,2,6-thiadiazin-4-one]",Spore Germination Rating,Alternaria solani [1]; 1.0 ppm,4 (80-100)
same,Spore Germination Rating,Alternaria solani [1]; 2.5 ppm,2 (40-60)
same,Spore Germination Rating,Alternaria solani [1]; 10 ppm,0 (0-10)
same,Spore Germination Rating,Alternaria solani [1]; 40 ppm,0 (0-10)
same,Spore Germination Rating,Botrytis cinerea; 1.0 ppm,0 (0-10)
same,Spore Germination Rating,Botrytis cinerea; 2.5 ppm,0 (0-10)
same,Spore Germination Rating,Botrytis cinerea; 10 ppm,4 (80-100)
same,Spore Germination Rating,Botrytis cinerea; 40 ppm,3 (60-80)
same,Spore Germination Rating,Erysiphe polygoni [2]; 1.0 ppm,2 (40-60)
same,Spore Germination Rating,Erysiphe polygoni [2]; 2.5 ppm,2 (40-60)
same,Spore Germination Rating,Erysiphe polygoni [2]; 10 ppm,1 (10-40)
same,Spore Germination Rating,Erysiphe polygoni [2]; 40 ppm,0 (0-10)
same,Spore Germination Rating,Uromyces phaseoli [3]; 1.0 ppm,4 (80-100)
same,Spore Germination Rating,Uromyces phaseoli [3]; 2.5 ppm,1 (10-40)
same,Spore Germination Rating,Uromyces phaseoli [3]; 10 ppm,0 (0-10)
same,Spore Germination Rating,Uromyces phaseoli [3]; 40 ppm,0 (0-10)
same,Spore Germination Rating,Pyricularia oryzae [4]; 1.0 ppm,4 (80-100)
same,Spore Germination Rating,Pyricularia oryzae [4]; 2.5 ppm,3 (60-80)
same,Spore Germination Rating,Pyricularia oryzae [4]; 10 ppm,0 (0-10)
same,Spore Germination Rating,Pyricularia oryzae [4]; 40 ppm,0 (0-10)
same,Spore Germination Rating,Cladosporium cucumerinum [5]; 1.0 ppm,0 (0-10)
same,Spore Germination Rating,Cladosporium cucumerinum [5]; 2.5 ppm,0 (0-10)
same,Spore Germination Rating,Cladosporium cucumerinum [5]; 10 ppm,0 (0-10)
same,Spore Germination Rating,Cladosporium cucumerinum [5]; 40 ppm,0 (0-10)
same,Spore Germination Rating,Phytophthora infestans [6]; 1.0 ppm,4 (80-100)
same,Spore Germination Rating,Phytophthora infestans [6]; 2.5 ppm,2 (40-60)
same,Spore Germination Rating,Phytophthora infestans [6]; 10 ppm,0 (0-10)
same,Spore Germination Rating,Phytophthora infestans [6]; 40 ppm,0 (0-10)
same,inhibition at 5 ppm,Alternaria solani [7]; 5 ppm,54%
same,inhibition at 10 ppm,Alternaria solani [7]; 10 ppm,58%
same,inhibition at 20 ppm,Alternaria solani [7]; 20 ppm,58%
same,inhibition at 40 ppm,Alternaria solani [7]; 40 ppm,100%
same,inhibition at 5 ppm,"Fusarium solani; PS, 5 ppm, 72 hours, read-out: Percent Fungus Growth Inhibition",16%
same,inhibition at 10 ppm,"Fusarium solani; PS, 10 ppm, 72 hours, read-out: Percent Fungus Growth Inhibition",16%
same,inhibition at 20 ppm,"Fusarium solani; PS, 20 ppm, 72 hours, read-out: Percent Fungus Growth Inhibition",42%
same,inhibition at 40 ppm,"Fusarium solani; read-out: Percent Fungus Growth Inhibition, PS, 40 ppm, 72 hours",68%
same,inhibition at 5 ppm,Sclerotinia fructicola; 5 ppm,56%
same,inhibition at 10 ppm,Sclerotinia fructicola; 10 ppm,78%
same,inhibition at 20 ppm,Sclerotinia fructicola; 20 ppm,100%
same,inhibition at 40 ppm,Sclerotinia fructicola; 40 ppm,100%
same,inhibition at 5 ppm,"Pyricularia oryzae [8]; read-out: Percent Fungus Growth Inhibition, PO, 5 ppm, 72 hours",22%
same,inhibition at 10 ppm,"Pyricularia oryzae [8]; read-out: Percent Fungus Growth Inhibition, PO, 10 ppm, 72 hours",56%
same,inhibition at 20 ppm,"Pyricularia oryzae [8]; read-out: Percent Fungus Growth Inhibition, PO, 20 ppm, 72 hours",59%
same,inhibition at 40 ppm,"Pyricularia oryzae [8]; read-out: Percent Fungus Growth Inhibition, PO, 40 ppm, 72 hours",93%
same,inhibition at 5 ppm,Pythium ultimum; 5 ppm,0%
same,inhibition at 10 ppm,Pythium ultimum; 10 ppm,100%
same,inhibition at 20 ppm,Pythium ultimum; 20 ppm,100%
same,inhibition at 40 ppm,Pythium ultimum; 40 ppm,100%
same,inhibition at 5 ppm,Rhizoctonia solani; 5 ppm,0%
same,inhibition at 10 ppm,Rhizoctonia solani; 10 ppm,0%
same,inhibition at 20 ppm,Rhizoctonia solani; 20 ppm,51%
same,inhibition at 40 ppm,Rhizoctonia solani; 40 ppm,64%
same,inhibition at 5 ppm,"Cladosporium cucumerinum [9]; 72 h, 5 ppm",10%
same,inhibition at 10 ppm,"Cladosporium cucumerinum [9]; 72 h, 10 ppm",32%
same,inhibition at 40 ppm,"Cladosporium cucumerinum [9]; 72 h, 40 ppm",65%
same,inhibition at 20 ppm,"Cladosporium cucumerinum [9]; CC20, 72 h, 20 ppm",48%
same,pest or weed control at 150 ppm,Phytophthora infestans [10],90%
same,pest or weed control at 150 ppm,Pyricularia oryzae [11],0%
same,inhibition at 5 ppm,"Helminthosporium oryzae; read-out: Percent Fungus Growth Inhibition, HO, 5 ppm, 72 hours",40%
same,inhibition at 10 ppm,"Helminthosporium oryzae; read-out: Percent Fungus Growth Inhibition, HO, 10 ppm, 72 hours",60%
same,inhibition at 20 ppm,"Helminthosporium oryzae; read-out: Percent Fungus Growth Inhibition, HO, 20 ppm, 72 hours",33%
same,inhibition at 40 ppm,"Helminthosporium oryzae; read-out: Percent Fungus Growth Inhibition, HO, 40 ppm, 72 hours",60%
same,pest or weed control at 150 ppm,Uromyces phaseoli [12],0%
same,pest or weed control at 150 ppm,Uromyces phaseoli [13],0%
same,pest or weed control at 150 ppm,Erysiphe polygoni [14],0%
